Experimental findings from ChEMBL document CHEMBL5143533, “Development of isoquinolinone derivatives as immunoproteasome inhibitors” (Bioorg Med Chem Lett, 2022) are described below.

Where a SMILES comes first, the peptide text is derived from it. The star is where a group is joined. Cbz = O=C(OCc1ccccc1)*

Assay [1] concerns the target T1, Proteasome Macropain subunit MB1 (Homo sapiens, UniProt P28074).
T1 sequence (P28074 whole entry): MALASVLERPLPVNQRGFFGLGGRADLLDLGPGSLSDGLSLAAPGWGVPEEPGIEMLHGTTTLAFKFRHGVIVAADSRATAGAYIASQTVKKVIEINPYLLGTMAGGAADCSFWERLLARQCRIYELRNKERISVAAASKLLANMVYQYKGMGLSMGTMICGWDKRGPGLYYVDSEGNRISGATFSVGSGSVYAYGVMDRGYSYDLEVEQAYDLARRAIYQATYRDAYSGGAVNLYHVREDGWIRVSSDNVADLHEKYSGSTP
Description: Inhibition of 20S constitutive proteosome beta5c subunit (unknown origin) assessed as substrate hydrolysis using Suc-Leu-Leu-Val-Tyr-AMC as fluorogenic substrate at 100 uM.

Assay [2] in a line: Inhibition of 20S immuno proteosome beta5i subunit (unknown origin) assessed as substrate hydrolysis using Suc-Leu-Leu-Val-Tyr-AMC as fluorogenic substrate at 100 uM. Further details: species or system Homo sapiens.
Assay [3] can be described thus: Cytotoxicity against human MM1.R cells assessed as reduction in cell vitality incubated for 24 hrs by MTT assay. Format: functional, cell-based. Conditions: MM.1R.
The species named for another assay is Homo sapiens. Description: Reversible inhibition of 20S immuno proteosome beta 5i subunit (unknown origin) assessed as substrate hydrolysis using Suc-Leu-Leu-Val-Tyr-AMC as substrate at 0.25 to 25 uM by fluorescence based assay. Conditions: dose 0.25-25 µM, time <= 600.0 sec, TDE = time-dependent effect.
Assay [4] in a line: Inhibition of 20S immuno proteosome beta5i subunit (unknown origin) assessed as substrate hydrolysis using Z-Leu-Leu-Leu-al as substrate. Details: species or system Homo sapiens.

`COc1cc2ccn(C/C=C/C(=O)Nc3ccccc3)c(=O)c2cc1OC`: the inhibition constant Ki in assay [1] stood at 49 µM; in assay [2], 50 µM.

`COc1cc2ccn(C/C=C/C(=O)NCc3ccccc3)c(=O)c2cc1OC`: the Ki in assay [2] is 65 µM.

`CCCCNC(=O)/C=C/Cn1ccc2cc(OC)c(OC)cc2c1=O`: the inhibition constant (Ki) in assay [1] was determined as 19 µM; in assay [2], 49 µM.

For `CC(C)CCNC(=O)Cn1ccc2ccc(Br)cc2c1=O`, the EC50 in assay [3] was 17.8 µM.

For `COc1cc2ccn(C/C=C/C(=O)NCCc3ccccc3)c(=O)c2cc1OC`, the Ki in assay [1] amounted to 60 µM; in assay [2], 45 µM.

For `COc1cc2ccn(C/C=C/C(=O)NCCC(C)C)c(=O)c2cc1OC`, the Ki in assay [1] worked out at 1.18 µM; in assay [2], 1.91 µM. Also, the inhibition result in the assay listed under Homo sapiens was “Tde”.

On to `COc1cc2ccn(C/C=C/C(=O)NC3CCCCC3)c(=O)c2cc1OC`, for which the Ki in assay [1] worked out at 23 µM; in assay [2] it was 55 µM.

With `COc1cc2ccn(C/C=C/C(=O)NCCCc3ccccc3)c(=O)c2cc1OC`, the Ki in assay [1] turned out to be 10.6 µM; in assay [2], 64 µM.

Take `CC(C)C[C@@H](C=O)NC(=O)[C@H](CC(C)C)NC(=O)[C@H](CC(C)C)NC(=O)OCc1ccccc1` [MG-132] (Cbz-Leu-Leu-Leu-aldehyde): in assay [4], the Ki was 0.07 µM.
